# In patent US8062662B2, “Liposomes containing an entrapped compound in supersaturated solution” (Alza Corporation, priority 2000, dated 2011):
# Experiment: [1H,15N] HSQC NMR / HPLC: reactivity of cisplatin with histidine and leakage from liposomes
# Format: physicochemical
# Conditions: 24-hour incubation, 1:1 mole ratio with N-acetyl histidine
# Excerpt: Inverse detection experiments detect the protons that are coupled to ^15N and thus provide information about the chemical shifts and coupling constants of the ^15N which depend on the ligands in the first coordination sphere of the Pt and on its oxidation state. […] HSQC and HMQC are two-dimensional inverse detection experiments that have the proton chemical shifts on one axis and the ^15N chemical shifts on the second axis. HSQC and HMQC of ^15N-labeled Pt complexes have been used successfully, to detect micromolar concentrations of Pt complexes. In the studies performed in support of the invention, HSQC was used, since it gives narrower lines and better resolution than HMQC. […] In addition to the tremendous gain in sensitivity, HSQC selectively detects only the protons that are coupled to the ^15N, thus ignoring all the other protons in the solution (from the liposomes) and simplifying the interpretation of the data.
# These associations are irreversible, thus making the drug unavailable, once bound.
# A similar study was carried out with N-BOC-methionine.
# Lipids (HSPC/cholesterol/^2000PEG-DSPE 51:44:5) were dissolved in ethanol. […] Aliquots of the liposomes and of both precipitates were analyzed by heteronuclear single quantum coherence (HSQC) at 30° C. […]
# All [^1H, ^15N] […] The 2D data were recorded using Bruker sequence of […] […]
smiles,measurement,value
"N.N.[Cl][Pt][Cl] [^15N-cisplatin, cis-^15N-diamminedichloroplatinum(II)]","cisplatin-histidine species, share of the platinum detected (HPLC)",20-30%
